The record followed here is ChEMBL document CHEMBL3507680, “University of Dundee, Gates Library screen for HepG2 cell viability”.

A short description of this series: Human HepG2 cell viability assay in 384 well format. The class given is toxicity, cell-based. Further details: dose 125 nL, time 70.5 hour; concentration not given beside the values. The settings on record: HepG2 cells, read-out: Inhibition.
As to `O=C(NCCN1CCOCC1)N1CCN(c2ccccc2)CC1`, the cytotoxicity at 70.5 h is -10.1%.
With `O=C(CCC1CCCCO1)NCc1cnn(-c2ccc(F)cc2F)c1` (centres undefined), the cytotoxicity at 70.5 h is 8.18%.
To `Cc1ccc(NC(=O)N2CCCN(C(N)=O)CC2)s1` belongs 7.8%; to `CN(C)CCSc1ccc(NC(=O)c2nccn3ccnc23)cc1`, -2.14%.
The same measure for `O=C(N1CCN(CCO)CC1)C1(O)Cc2ccccc2C1`: -4.44%; for `O=C(N1CCSCC1)C1(O)Cc2ccccc2C1`: -2.54%.
`Cc1cc(C)c(S(=O)(=O)Nc2c(C)noc2C)cc1C(=O)O`: the cytotoxicity at 70.5 h was -2.9%.
As for `O=C(Cn1cccc2oc(=O)nc1-2)NCC1Cc2ccccc2O1` (centres undefined), the cytotoxicity at 70.5 h is -5.36%.
Regarding `O=C(N1CCN(c2ccccc2O)CC1)C1(O)Cc2ccccc2C1`, the cytotoxicity at 70.5 h was 0.667%.
The same measure for `CC(=O)c1ccc(C(=O)NCc2ccnc(N(C)C)n2)cc1`: 5.65%; for `Fc1cccnc1N1CCC(NCc2cccc3cn[nH]c23)C1` (centres undefined): 3.51%; for `Brc1ccc(C2(NCc3noc(C4CC4)n3)CCC2)cc1`: 2.53%.
To `CCC1CCC(N(Cc2cc(=O)n(C)c(=O)n2C)C2CC2)CC1` (centres undefined) belongs -5.27%.
In the case of `CC(C)N1CCCC(N2CCOC3(CCCC3)C2)C1=O` (centres undefined), the cytotoxicity at 70.5 h is -7.02%.
For the molecule `CC(C)N1CCC(N2CCOC3(CCCC3)C2)C1=O` (centres undefined), the cytotoxicity at 70.5 h was -6.53%.
`O=C(c1ccc(SC(F)(F)F)cc1)N1CCOCC1c1ncon1` (centres undefined): the cytotoxicity at 70.5 h was -5.57%.
With `CC(CCc1ccccc1F)C(=O)NS(=O)(=O)N(C)C(C)C` (centres undefined), the cytotoxicity at 70.5 h was -12.3%.
As to `CC1CCN(CCCNC(=O)C2CCCCC2)CC1`, the cytotoxicity at 70.5 h is -5.79%.
Take `CN(C1CCCCC1)S(=O)(=O)NC1CCCN(c2ncccn2)C1` (centres undefined): the cytotoxicity at 70.5 h is -8.05%.
For `CC(SCC(=O)NCCC#N)c1ccc(Cl)cc1` (centres undefined), the cytotoxicity at 70.5 h is -18.4%.
To `O=C1CC(N(C(=O)c2ccc(Oc3ccccc3)cc2)C2CC2)C(=O)N1` (centres undefined) belongs -4.82%.
The same measure for `O=C(c1cnn(-c2ccccc2)c1)N1CCN(c2cnccn2)CC1`: -15.3%.
To `CCS(=O)(=O)Cc1ccn(-c2cccc(F)c2)n1` belongs -3.75%.
`COc1ccc(C(=O)N(C2CC2)C2CC(=O)NC2=O)cc1` (centres undefined): the cytotoxicity at 70.5 h was -2.33%.
Regarding `CN(C)C(=O)CCS(=O)(=O)Cc1ccn(-c2cccc(F)c2)n1`, the cytotoxicity at 70.5 h was 4.33%.
For the molecule `CC(C)c1nc(C2CCCN(C(=O)CN(C)S(C)(=O)=O)C2)no1` (centres undefined), the cytotoxicity at 70.5 h is 5.74%.
As to `CCn1nc(C)c(CNC(=O)NCC(C)(O)c2ccsc2)c1C` (centres undefined), the cytotoxicity at 70.5 h was -8.94%.
For `Cn1ncc(C(=O)OCC2CCN(c3ccccc3)C2)c1C(F)F` (centres undefined), the cytotoxicity at 70.5 h is -3.5%.
As for `CC(C)NC(=O)CCNC(=O)Nc1cnn(-c2ccccc2F)c1`, the cytotoxicity at 70.5 h is -0.437%.
Regarding `O=C(Nc1cnn(-c2ccccc2Cl)c1)N[C@@H]1C=C[C@H](CO)C1`, the cytotoxicity at 70.5 h was -5.42%.
For `CC1CN(S(=O)(=O)c2ccc(F)cc2)c2cccnc2O1` (centres undefined), the cytotoxicity at 70.5 h amounted to 1.22%.
Regarding `Cc1ccc(S(=O)(=O)N2CC(C)Oc3ncccc32)c(F)c1` (centres undefined), the cytotoxicity at 70.5 h is -7.65%.
As for `CC(C)(C(=O)NCCC(=O)O)c1cccc(Br)c1`, the cytotoxicity at 70.5 h was -12.3%.
`COC(=O)C(O)C1CCN(CCc2ccncc2)CC1` (centres undefined): the cytotoxicity at 70.5 h was 9.73%.
With `COC(=O)C(O)C1CCN(CCc2ccccn2)CC1` (centres undefined), the cytotoxicity at 70.5 h was -1.57%.
For `COC1CCN(CCNC(=O)C2CCCCC2)CC1`, the cytotoxicity at 70.5 h was -7.3%.
For `CCOC(=O)C1CCN(C(=O)CN2CCCC2c2ccccc2C)CC1` (centres undefined), the cytotoxicity at 70.5 h was -10.7%.
As to `CCOC(=O)C1CCN(C(=O)CN2CCCC2c2cc(C)no2)CC1` (centres undefined), the cytotoxicity at 70.5 h is -17.8%.
Turning to `COC(=O)C(O)C1CCN(CCc2ccc(C)cc2)CC1` (centres undefined), the cytotoxicity at 70.5 h was 9.49%.
To `CCS(=O)(=O)CC(=O)N1CCCC(c2noc(C(C)C)n2)C1` (centres undefined) belongs 8.9%; to `CCC(NC(=O)CN(C)Cc1ccc(C)o1)c1ccc(C)cc1` (centres undefined), -10.3%; to `O=C(CCCc1ccccn1)N1CCC(n2cccc2)CC1`, -1.32%.
As for `COCCOCCNC(=O)N1CCN(c2ccccc2C#N)CC1`, the cytotoxicity at 70.5 h was -2.61%.
On to `CC(C)c1nc(C2CCCN(c3ncccn3)C2)no1` (centres undefined), for which the cytotoxicity at 70.5 h is -10.3%.
Consider `O=C(NCc1ccccn1)N1CC=C(c2ccccc2)CC1`, for which the cytotoxicity at 70.5 h was -16.2%.
Turning to `O=C(NCC(O)c1ccc(F)cc1F)c1ccccc1F` (centres undefined), the cytotoxicity at 70.5 h is -12.6%.
In the case of `CN(C)CCOc1ccc(CNC(=O)c2cccc(Cl)c2Cl)cc1`, the cytotoxicity at 70.5 h was 8.38%.
As for `Cn1cnc(S(=O)(=O)Nc2cc(C(N)=O)ccc2Cl)c1`, the cytotoxicity at 70.5 h was -8.58%.
As to `COc1c(CNCc2ccccc2CO)c(C)nn1C`, the cytotoxicity at 70.5 h was -5.09%.
As to `CCCNC(=O)CN1CCC(NCc2c(C)nn(C)c2OC)CC1`, the cytotoxicity at 70.5 h is -0.725%.
For the molecule `O=C(NCc1ccccc1CO)Nc1ccc2c(c1)CCC2`, the cytotoxicity at 70.5 h is -1.72%.
As to `CNC(=O)c1cccc(CCNS(C)(=O)=O)c1`, the cytotoxicity at 70.5 h was -2.35%.
Regarding `CC(C)c1nnc2n1CC(CNCc1ccc3c(c1)OCCO3)CC2` (centres undefined), the cytotoxicity at 70.5 h was -3.48%.
Consider `CC(C)c1cnc(CN(C)C2CCN(CCc3ccncc3)C2)o1` (centres undefined), for which the cytotoxicity at 70.5 h is 18.9%.
To `COCCCN(Cc1ccncc1)c1cc(C)ncn1` belongs 6.24%; to `Cc1cc(NCCNS(=O)(=O)c2cccc(Cl)c2)nc(C)n1`, -1%; to `COc1ccc(F)cc1C[S+]([O-])CC(=O)NCC(C)C` (centres undefined), -0.815%.
In the case of `O=C(Cc1csc(-c2ncccn2)n1)N1CCN2CCCCC2C1` (centres undefined), the cytotoxicity at 70.5 h was 7.23%.
For the molecule `CCC1CCCCN1Cc1ncc(-c2ccc(OC)cc2)o1` (centres undefined), the cytotoxicity at 70.5 h turned out to be 18.3%.
The same measure for `CCc1ncc2c(n1)CN(CCCOc1ccc(C#N)cc1)CC2`: -0.432%; for `COCCNC(=O)C1CCCN1S(=O)(=O)c1sc(=O)[nH]c1C` (centres undefined): -6.44%; for `Cc1nnc(CN2CCC(Oc3ccc(F)cc3)CC2)o1`: 0.0555%.
`CCCS(=O)(=O)NCC(C)c1ccc(F)c(F)c1` (centres undefined): the cytotoxicity at 70.5 h amounted to 6.33%.
Turning to `CNC(=O)c1cccc(CCNc2ccc(C#N)cn2)c1`, the cytotoxicity at 70.5 h turned out to be 0.174%.
On to `COCc1csc(NC(=O)NCc2ccc(C)s2)n1`, for which the cytotoxicity at 70.5 h amounted to 1.09%.
Turning to `COc1ccc(F)cc1C[S+]([O-])CC(=O)NCc1ccccc1` (centres undefined), the cytotoxicity at 70.5 h was -4.53%.
To `Cc1nsc(NCCNS(=O)(=O)c2ccccc2)n1` belongs -1.39%; to `O=C(Nc1cccc(C(F)F)c1)N[C@@H]1C=C[C@H](CO)C1`, 2.83%; to `COc1cccc2[nH]cc(CCNC(=O)N3CCOCC3C3CC3)c12` (centres undefined), 23.2%.
As for `CNC(=O)c1cccc(CCNc2ccccn2)c1`, the cytotoxicity at 70.5 h was -0.207%.
Regarding `Cc1nc(C)n(CC2CCCCN2CC(=O)NCc2ccccn2)n1` (centres undefined), the cytotoxicity at 70.5 h is 2.56%.
Consider `c1cncc(CN(Cc2ccc3c(c2)OCCO3)CC2CCCO2)c1` (centres undefined), for which the cytotoxicity at 70.5 h came out at 25.2%.
For `OCC1CCCN1c1cc(NCCc2nccs2)ncn1` (centres undefined), the cytotoxicity at 70.5 h was determined as 0.047%.
For `Cc1nc(C)n(CC2CCCN2CC(=O)Nc2ccncc2)n1` (centres undefined), the cytotoxicity at 70.5 h was -4.71%.
